Data taken from EPA's ToxValDB 9.5 (doi:10.2903/j.efsa.2008.151r).

Legend:
[1] = test system: Canidae; conditions: subchronic; duration: 90 days; oral; Dog Other; body weight
[2] = test system: Daphnia magna; conditions: chronic/long-term; duration: 21 days; reproduction
[3] = test system: Lepomis macrochirus; conditions: chronic/long-term; duration: 28 days; body weight
[4] = test system: Oryctolagus sp.; conditions: developmental; development
[5] = test system: Rattus norvegicus
[6] = test system: Tagia sp.; conditions: acute; duration: 14 days; mortality
[7] = test system: Typhlodromus pyri; experiment: LR50; higher = less toxic; conditions: not reported; mortality
[8] = reproduction developmental, reproduction

For CC(C)C(O)(c1ccc(OC(F)(F)F)cc1)c1cncnc1 (configuration not stated) [Flurprimidol], which NOAEL [1] is on record?
The NOAEL was 1.5 mg/kg-day.

What about the NOEC [2] of the same compound?
Its NOEC is 1.7 mg/L.

What about the NOEC [3] of the same compound?
The NOEC was 0.42 mg/L.

What about the NOAEL [4] of the same compound?
The NOAEL was 9 mg/kg-day.

What about the LOAEL ([5]; chronic, duration: 2 years, organ weight) of the same compound?
Its LOAEL is 1 mg/kg-day.

And the NOAEL ([5]; developmental, development)?
The NOAEL was 10 mg/kg-day.

What about the NOAEL [5, 8] of the same compound?
Its NOAEL is 1.8 mg/kg-day.

And the NOEL [5, 8]?
Its NOEL is 1.8 mg/kg-day.

What about the NOEL ([5]; short-term, oral, diet, body weight) of the same compound?
Its NOEL is 1.62 mg/kg-day.

What about the NOAEL ([5]; subchronic, duration: 90 days, oral, F, organ weight) of the same compound?
Its NOAEL is 1.96 mg/kg-day.

And the NOEC [6]?
Its NOEC is 62.6 mg/kg.

What about the LR50 [7] of the same compound?
The LR50 was > 29.6 g/ha.
